{"source": "patent US7723289B2", "about": "“PIF tetrapeptides” (BioIncept, LLC, priority 2003, dated 2010)", "key": {"PBMC [1]": {"tested_on": "PBMC", "experiment": "PIF and analogues on release of cytokines +/- platebound mAbCD3 (Table 4)", "format": "cell-based", "design": "IL-1β / TNFa / IL-4 / IL-5 / IL-6 / IL-10 / GM-CSM / IFN-g: unit not given here"}, "PBMC [2]": {"tested_on": "PBMC", "experiment": "FITC-labeled PIF binding to PBMC subpopulations (flow cytometry)", "design": "species or system human", "experimental": "Expression of PIF-1(15) (SEQ ID NO:1), receptor following PHA induced PBMC proliferation CD-4 T cells; CD-8 T cells; NK cell and B cells (unstimulated-top); (PHA stimulated-bottom). Flow cytometry analysis of PBMC following exposure to FITC sPIF-1(15) (SEQ ID NO:13) % expression was determined in PBMC subtypes before and after exposure to 1 ug/ml PHA for 24 hours.\nHuman PBMC were isolated by the Ficoll method. FITC-labeled nPIF-115 (SEQ ID NO: 1) and (FITC)-labeled scrPIF-1 (SEQ ID NO:5) and match-size irrelevant peptide (FITC)-labeled negative controls negPIF-1(15) (SEQ ID NO:11), were dissolved in PBS at concentrations ranging from 0.75 to 48.19 μM, and were incubated with 500,000 lymphocytes for 1 h at room temperature. The cells were washed 6 times with PBS and resuspended in 500 μl of the same buffer. T-cells and monocytes identification was performed in independent experiments by incubation with anti-CD3 and anti-CD14 antibody-phycoerithryn (PE) labeled. nPIF-115 (SEQ ID NO: 1) binding to PBMC was determined by flow cytometry. In addition, rosettes formed by T cell-platelets were detected by flow cytometry using anti-CD3 antibody-PE and anti-CD41a antibody-FITC (all antibodies were from Pharmingen Inc.).\nUsing flow cytometry fluoroscein-labeled sPIF-115 (SEQ ID NO: 13) binding to immune cells was examined on resting PBMC."}, "mice": {"tested_on": "mice", "experiment": "Subcutaneous osmotic mini-pump administration in mated mice, implantation sites", "format": "in vivo", "experimental": "Preliminary in vivo assessment of PIF-1 antagonist by using PIF1scr/amide was performed. […] Following the protocol below: (Dr Hoberman, Argus, Inc) PIF-1scr/amide was introduced two days after estrus to mice through an osmotic mini-pump (Alzet Model 2001; 1 ul/hr for 7 days) containing either 0.9% saline or 150 ug or 800 ug PIF-1scr/amide/day release in saline. The pumps were inserted subcutaneously under ketamine/xylazine anesthesia. Female mice were placed with male mice on the third day afternoon of the expected estrus. Four different groups 5 each were studied, low and high dose PIF-1scr/amide, saline control, and one group with PIF-1. Mating was confirmed by the presence of sperm in the vagina or a copulatory plug the next morning. Pregnancy (or lack thereof) was determined by sacrificing on day 10 after breeding and the uterine horns were examined for implantation sites by using Chicago Blue solution.\nThe group treated with PIF-1 160 ug/kg/day appeared to have increased number of implantation sites and this was associated with a higher rate of fetal survival compared to vehicle treated controls."}, "human lymphocytes": {"tested_on": "human lymphocytes", "experimental": "Human PBMC were isolated and cultured for 2-4 days in AIM-V medium containing 0 to 200 nM of sPIF-115 (SEQ ID NO:13) or scrPIF-115 (SEQ ID NO:5). The following proliferation-activating agents were used: anti-CD3 antibody (10 μg/ml solution) bound on the plate wells in the presence or absence of IL-2 at 10 μg/ml; phytohemmaglutinin (PHA) at 4 μg/ml. The effects of sPIF-115 (SEQ ID NO:13) or scrPIF-115 (SEQ ID NO:5) peptides were also determined by the mixed lymphocyte reaction (MLR) after 3 days in heterologous cultures of PBMC with cells previously treated with mitomycin C (100 μg/ml for 4 h). Cell proliferation was determined by tritiated thymidine incorporation (16 h) of 72-h culture. Cytokine release (IL-4, IL-10, IFN-γ and TNF-α) into culture supernatants was determined at 72 h of culture by ELISA (R&D System)."}, "PBMC [3]": {"tested_on": "PBMC", "experiment": "PIF-1 effects on cytokine expression in patient and control PBMC (Table 7)", "format": "cell-based, human", "details": "for TH1/TH2 change in parentheses: PHA + PIF-115 + vs PHA + alone; for IL-10 / TH1/TH2 / TNFα: PHA +, PIF-115 +"}, "CD2": {"tested_on": "CD2", "experiment": "CD2 expression in PBMC (flow cytometry, CD2MAb-FITC)", "format": "cell-based", "details": "PBMC exposed 3 days"}, "[4]": {"details": "PBMC within 24 hrs of PHA activation"}, "[5]": {"details": "160 ug/kg/day, compared to vehicle treated controls"}}, "note": "Where two headings read alike, the source gives them in different places."}
{"sequence": "MVRIKPGSANKPSDD [sPIF-1(15)]", "values": [{"measurement": "PHA stimulation of Ca2+ influx", "setting": "T cells; PHA activated T cells", "value": "does not show any inhibition"}, {"measurement": "Ca++ mobilization", "setting": "T cells; PMA and ionomycin activated T-cells, 1 nM-50 uM", "value": "did not affect"}, {"measurement": "GM-CSM", "setting": "PBMC [1]; C- (platebound mAbCD3), /1", "value": 20.7}, {"measurement": "IFN-g", "setting": "PBMC [1]; C- (platebound mAbCD3), /1", "value": 122.6}, {"measurement": "IL-1β", "setting": "PBMC [1]; C- (platebound mAbCD3), /1", "value": 3.4}, {"measurement": "IL-2", "setting": "PBMC [1]; C- (platebound mAbCD3), /1", "value": 21.4}, {"measurement": "IL-4", "setting": "PBMC [1]; C- (platebound mAbCD3), /1", "value": 17.2}, {"measurement": "IL-5", "setting": "PBMC [1]; C- (platebound mAbCD3), /1", "value": 0}, {"measurement": "IL-6", "setting": "PBMC [1]; C- (platebound mAbCD3), /1", "value": 204.2}, {"measurement": "IL-8", "setting": "PBMC [1]; C- (platebound mAbCD3), /1", "value": ">5000"}, {"measurement": "IL-10", "setting": "PBMC [1]; C- (platebound mAbCD3), /1", "value": 72.9}, {"measurement": "TNFa", "setting": "PBMC [1]; C- (platebound mAbCD3), /1", "value": 135.7}, {"measurement": "GM-CSM", "setting": "PBMC [1]; C- (platebound mAbCD3), /50", "value": 29.1}, {"measurement": "IFN-g", "setting": "PBMC [1]; C- (platebound mAbCD3), /50", "value": 130.3}, {"measurement": "IL-1β", "setting": "PBMC [1]; C- (platebound mAbCD3), /50", "value": 4.4}, {"measurement": "IL-2", "setting": "PBMC [1]; C- (platebound mAbCD3), /50", "value": 31.0}, {"measurement": "IL-4", "setting": "PBMC [1]; C- (platebound mAbCD3), /50", "value": 17.9}, {"measurement": "IL-5", "setting": "PBMC [1]; C- (platebound mAbCD3), /50", "value": 0}, {"measurement": "IL-6", "setting": "PBMC [1]; C- (platebound mAbCD3), /50", "value": 287.7}, {"measurement": "IL-8", "setting": "PBMC [1]; C- (platebound mAbCD3), /50", "value": ">5000"}, {"measurement": "IL-10", "setting": "PBMC [1]; C- (platebound mAbCD3), /50", "value": 77.0}, {"measurement": "TNFa", "setting": "PBMC [1]; C- (platebound mAbCD3), /50", "value": 223.5}, {"measurement": "GM-CSM", "setting": "PBMC [1]; U- (no mAbCD3), /1", "value": 12.5}, {"measurement": "IFN-g", "setting": "PBMC [1]; U- (no mAbCD3), /1", "value": 0}, {"measurement": "IL-1β", "setting": "PBMC [1]; U- (no mAbCD3), /1", "value": 0}, {"measurement": "IL-2", "setting": "PBMC [1]; U- (no mAbCD3), /1", "value": 19.9}, {"measurement": "IL-4", "setting": "PBMC [1]; U- (no mAbCD3), /1", "value": 0}, {"measurement": "IL-5", "setting": "PBMC [1]; U- (no mAbCD3), /1", "value": 0}, {"measurement": "IL-6", "setting": "PBMC [1]; U- (no mAbCD3), /1", "value": 32.2}, {"measurement": "IL-8", "setting": "PBMC [1]; U- (no mAbCD3), /1", "value": 963.0}, {"measurement": "IL-10", "setting": "PBMC [1]; U- (no mAbCD3), /1", "value": 0}, {"measurement": "TNFa", "setting": "PBMC [1]; U- (no mAbCD3), /1", "value": 0}, {"measurement": "GM-CSM", "setting": "PBMC [1]; U- (no mAbCD3), /50", "value": 0}, {"measurement": "IFN-g", "setting": "PBMC [1]; U- (no mAbCD3), /50", "value": 0}, {"measurement": "IL-1β", "setting": "PBMC [1]; U- (no mAbCD3), /50", "value": 0}, {"measurement": "IL-2", "setting": "PBMC [1]; U- (no mAbCD3), /50", "value": 0}, {"measurement": "IL-4", "setting": "PBMC [1]; U- (no mAbCD3), /50", "value": 0}, {"measurement": "IL-5", "setting": "PBMC [1]; U- (no mAbCD3), /50", "value": 0}, {"measurement": "IL-6", "setting": "PBMC [1]; U- (no mAbCD3), /50", "value": 37.8}, {"measurement": "IL-8", "setting": "PBMC [1]; U- (no mAbCD3), /50", "value": 1426.7}, {"measurement": "IL-10", "setting": "PBMC [1]; U- (no mAbCD3), /50", "value": 0}, {"measurement": "TNFa", "setting": "PBMC [1]; U- (no mAbCD3), /50", "value": 0}, {"measurement": "fluorescence-labeled peptide binding to human lymphocytes", "setting": "PBMC [2]; FIG. 1(A)", "value": "dose dependent manner"}, {"measurement": "B cells positive for fluorescent PIF binding", "setting": "PBMC [2]; [4]", "value": "> 90", "unit": "%"}, {"measurement": "T lymphocytes positive for fluorescent PIF binding", "setting": "PBMC [2]; [4]", "value": "60-80%"}, {"measurement": "binding to platelets", "setting": "PBMC [2]; basal state", "value": "not to platelets"}, {"measurement": "binding to monocytes", "setting": "PBMC [2]; basal state, unstimulated PBMC", "value": "binds all monocytes"}, {"measurement": "binding to NK cells", "setting": "PBMC [2]; even after several days in culture with PHA", "value": "did not appear to bind"}, {"measurement": "binding site expression on resting T cells (CD4+, CD8+), B cells (CD19+), NK cells (CD56)", "setting": "PBMC [2]; resting PBMC", "value": "very low"}, {"measurement": "number of implantation sites", "setting": "mice; [5]", "value": "increased"}, {"measurement": "rate of fetal survival", "setting": "mice; [5]", "value": "higher rate"}, {"measurement": "effect on maternal body weights", "setting": "mice; all tested groups", "value": "no effect"}, {"measurement": "effect on mouse fetuses number", "setting": "mice; early pregnancy", "value": "no significant effect"}, {"measurement": "toxic effects following administration in early pregnancy", "setting": "mice; pregnant mice", "value": "no toxic effects"}, {"measurement": "concentration at which lower rates of lymphocyte proliferation was found", "setting": "human lymphocytes; MLR", "value": 1, "unit": "nM"}, {"measurement": "concentration at which lower rates of lymphocyte proliferation was found", "setting": "human lymphocytes; PHA stimulated", "value": 250, "unit": "nM"}, {"measurement": "concentration at which lower rates of lymphocyte proliferation was found", "setting": "human lymphocytes; anti-CD3 antibody stimulated", "value": 62.5, "unit": "nM"}, {"measurement": "TH1/TH2 change in parentheses", "setting": "PBMC [3]; control", "value": "−19", "unit": "%"}, {"measurement": "IL-10", "setting": "PBMC [3]; control", "value": "28.18 % of total PBMC in scatter gate"}, {"measurement": "TH1/TH2", "setting": "PBMC [3]; control", "value": 0.55}, {"measurement": "TNFα", "setting": "PBMC [3]; control", "value": "15.46 % of total PBMC in scatter gate"}, {"measurement": "TH1/TH2 change in parentheses", "setting": "PBMC [3]; patient", "value": "+32%"}, {"measurement": "IL-10", "setting": "PBMC [3]; patient", "value": "24.32 % of total PBMC in scatter gate"}, {"measurement": "TH1/TH2", "setting": "PBMC [3]; patient", "value": 0.75}, {"measurement": "TNFα", "setting": "PBMC [3]; patient", "value": "18.32 % of total PBMC in scatter gate"}, {"measurement": "increase in CD2 expression", "setting": "CD2", "value": "170-200%"}]}
